Measured values: patent US8580806B2, “Salts of 4-methyl N-[3-(4-methyl-imidazol-1-yl)-5-trifluoromethyl-phenyl]-3-(4-pyridin-3-yl-pyrimidin-2-ylamino)-benzamide” (Novartis AG, priority 2005, dated 2013)
Structures can show the parent of a compound that is named as a salt.

Assays:
[1] = Hygroscopicity by TGA after one day at ambient temperature and 93% relative humidity; assay type: physicochemical; details: ambient temperature
Protocol: The hygroscopicity of the salts of the invention was determined by TGA after one day at ambient temperature and 93% relative humidity.

[2] = pKa values of the free base; assay type: physicochemical; details: two values
Protocol: In a second step of the present inventive method, the 4-methyl-N-[3-(4-methyl-imidazol-1-yl)-5-trifluoromethyl-phenyl]-3-(4-pyridin-3-yl-pyrimidin-2-ylamino)-benzamide free base is treated with an appropriate acid of the formula HB. […] Suitable acids include, without limitation, inorganic acids such as hydrochloric acid, phosphoric acid, sulfuric acid, and sulfonic acid and organic acids such as methane sulfonic acid, ethane sulfonic acid, benzene sulfonic acid, p-toluene sulfonic acid, citric acid, fumaric acid, gentisic acid, malonic acid, maleic acid, and tartaric acid.

[3] = pH 3.0 buffer, ambient temperature, at least 20 hours; listed as Control - free base form B
Protocol: The solubility of the salts of the invention was determined in pH 6.8, pH 3.0 and pH 1.0 buffers by suspending 1-5 mg of each salt in 10 mL of corresponding aqueous solution. The samples were allowed to equilibrate at ambient temperature for at least 20 hours for pH 6.8 and 3.0 or about 5 hours for pH 1.0. The supernatant was filtered and used for the solubility determination by UV-VIS spectroscopy.

[4] = Stability of solutions or suspensions (Table 15); assay type: physicochemical
[5] = Intrinsic Dissolution Rate (rotating disk method); assay type: physicochemical; details: 37° C., 200 rpm
Protocol: Intrinsic Dissolution Rate (IDR): Dissolution rate measurements were performed at 37° C. using the rotating disk method (VanKell Instrument). A single rotation speed of 200 rpm was used. For IDR in 0.1 N HCl, an 800 mL volume, and for IDE in water, a 200 mL volume were used. The solution was continuously pumped through a UV measuring cell and recycled to the dissolution vessel.

[6] = Solid state stability: heat, humidity, xenon light (Table 15); assay type: physicochemical
[7] = pH of 1% solution or suspension in water; assay type: physicochemical; details: 1% in water
[8] = Decomposition temperature by TGA; assay type: physicochemical; details: as stated in the description of the embodiments; listed as hydrochloride salt
Protocol: The LOD and decomposition temperature of the salts of the invention were determined by TGA, and the melting point was determined by DSC.

[9] = Bulk corrosivity; assay type: physicochemical; details: 2 day, 80% relative humidity with steel coupon
[10] = Hygroscopicity (moisture uptake v. relative humidity); assay type: physicochemical; details: when first tested
Protocol: Hygroscopicity: Sorption/desorption isotherms were collected using a Surface Measurements Systems dynamic vapor sorption device (DVS-1). The measurements were carried out at 25° C.

[11] = Solid-state behaviour of the hydrochloride salt (equilibration, grinding, compression); assay type: physicochemical
[12] = 0.1% solutions or suspensions, 1 week at 80° C., Acetonitrile
[13] = 0.1% solutions or suspensions, 1 week at 80° C., Ethanol
[14] = 0.1% solutions or suspensions, 1 week at 80° C., Methanol
[15] = 0.1% solutions or suspensions, 1 week at 80° C., Water (pH measured: 4.74; pH measured for HCl salt: 4.22)
[16] = 0.1% solutions or suspensions, 1 week at 80° C., pH 1 (pH measured: 1.26)
[17] = 0.1% solutions or suspensions, 1 week at 80° C., pH 2 (pH measured: 2.00)
[18] = 0.1% solutions or suspensions, 1 week at 80° C., pH 3 (pH measured: 2.94)
[19] = 0.1% solutions or suspensions, 1 week at 80° C., pH 5 (pH measured: 5.01)
[20] = 0.1% solutions or suspensions, 1 week at 80° C., pH 7 (pH measured: 6.02)
[21] = 0.1% solutions or suspensions, 1 week at 80° C., pH 9 (pH measured: 8.92)
[22] = 0.1% solutions or suspensions, 1 week at 80° C., pH 11 (pH measured: 10.86)
[23] = 0.1% solutions or suspensions, PH 1, 1 week @ 50° C.
[24] = 2% solutions or suspensions, 1 day at room temperature, 0.5% CMC
[25] = 2% solutions or suspensions, 1 day at room temperature, 0.5% HPMC cellulose 4000
[26] = 2% solutions or suspensions, 1 day at room temperature, 0.8% Tween 80
[27] = 5% solutions in DMSO, 1 day at room temperature, 1:100 dilution in pH 6.8 buffer
[28] = Solid state, 1 week 80° C., 75% relative humidity
[29] = Solid state, 1 week 80° C., 75% relative humidity, 30% in mixture 1
[30] = Solid state, 1 week 80° C., 75% relative humidity, 30% in mixture 2
[31] = Solid state, 1 week 80° C., 75% relative humidity, Bulk (HPLC)
[32] = Solid state, 1 week 80° C., tight container
[33] = Solid state, 1 week 80° C., tight container, 30% in mixture 1
[34] = Solid state, 1 week 80° C., tight container, 30% in mixture 2
[35] = Solid state, 1 week 80° C., tight container, Bulk (HPLC)
[36] = Xenon light (approximately 200 kLuxh)
[37] = Xenon light (approximately 200 kLuxh), Bulk (HPLC)

Cc1cn(-c2cc(NC(=O)c3ccc(C)c(Nc4nccc(-c5cccnc5)n4)c3)cc(C(F)(F)F)c2)cn1 [Free base (form B), 4-methyl-N-[3-(4-methyl-imidazol-1-yl)-5-trifluoromethyl-phenyl]-3-(4-pyridin-3-yl-pyrimidin-2-ylamino)-benzamide]
% moisture gain ([1]; listed as Control - free base form B): 0.08% | pKa [2]: 5.1 | Solubility at pH 3.0 [3]: 2.8 μg/mL | Appearance [4, 12]: A* | Assay [4, 12]: 100.16 | Assay [% area]: bracketed % area [4, 12]: 100.00 % area | Appearance [4, 13]: A* | Assay [4, 13]: 99.85 | Assay [% area]: bracketed % area [4, 13]: 99.96 % area | Appearance [4, 14]: A* | Assay [4, 14]: 98.04 | Assay [% area]: bracketed % area [4, 14]: 98.90 % area | Appearance [4, 15]: A↓ | Assay [4, 15]: 101.93 | Assay [% area]: bracketed % area [4, 15]: 100.00 % area | Appearance [4, 16]: A* | Assay [4, 16]: 50.22 | Assay [% area]: bracketed % area [4, 16]: 45.31 % area | Appearance [4, 17]: B↓ | Assay [4, 17]: 96.00 | Assay [% area]: bracketed % area [4, 17]: 94.86 % area | Appearance [4, 18]: A↓ | Assay [4, 18]: 102.19 | Assay [% area]: bracketed % area [4, 18]: 100.00 % area | Appearance [4, 19]: A↓ | Assay [4, 19]: 100.80 | Assay [% area]: bracketed % area [4, 19]: 100.00 % area | Appearance [4, 20]: A↓ | Assay [4, 20]: 100.14 | Assay [% area]: bracketed % area [4, 20]: 100.00 % area | Appearance [4, 21]: A↓ | Assay [4, 21]: 99.19 | Assay [% area]: bracketed % area [4, 21]: 100.00 % area | Appearance [4, 22]: A↓ | Assay [4, 22]: 100.50 | Assay [% area]: bracketed % area [4, 22]: 100.00 % area | Appearance [4, 23]: A* | Assay [4, 23]: 94.01 | Assay [% area]: bracketed % area [4, 23]: 93.44 % area | Appearance [4, 24]: A↓ | Assay [4, 24]: 98.28 | Assay [% area]: bracketed % area [4, 24]: 100.00 % area | Appearance [4, 25]: A↓ | Assay [4, 25]: 98.27 | Assay [% area]: bracketed % area [4, 25]: 100,00 % area | Appearance [4, 26]: A↓ | Assay [4, 26]: 98.78 | Assay [% area]: bracketed % area [4, 26]: 100.00 % area | Appearance [4, 27]: A↓ | Assay [4, 27]: 96.98 | Assay [% area]: bracketed % area [4, 27]: 100.00 % area | Assay ([4]; Unstressed): 100.99 | Assay [% area]: bracketed % area ([4]; Unstressed): 100.00 % area | Intrinsic dissolution rate ([5]; Water, listed as Free base form B): 0.0013 mg min^−1 cm^−2 | Intrinsic dissolution rate ([5]; pH 1 (0.1N HCl)): 0.17 mg min^−1 cm^−2 | Bulk (XRPD) [6, 28]: No change | Assay [6, 29]: 99.38 | Assay [% area]: bracketed % area [6, 29]: 100.00 % area | Assay [6, 30]: 89.37 | Assay [% area]: bracketed % area [6, 30]: 96.02 % area | Assay [6, 31]: 99.97 | Assay [% area]: bracketed % area [6, 31]: 100.00 % area | Bulk (XRPD) [6, 32]: No change | Assay [6, 33]: 100.11 | Assay [% area]: bracketed % area [6, 33]: 100.00 % area | Assay [6, 34]: 94.28 | Assay [% area]: bracketed % area [6, 34]: 97.75 % area | Assay [6, 35]: 99.77 | Assay [% area]: bracketed % area [6, 35]: 100.00 % area | Bulk (XRPD) [6, 36]: No change | Assay [6, 37]: 96.03 | Assay [% area]: bracketed % area [6, 37]: 100.00 % area | pH of 1% solution or suspension in water ([7]; listed as Free base form B): 7.99

Cc1cn(-c2cc(NC(=O)c3ccc(C)c(Nc4nccc(-c5cccnc5)n4)c3)cc(C(F)(F)F)c2)cn1 [Hydrochloride monohydrate (form B), 4-methyl-N-[3-(4-methyl-imidazol-1-yl)-5-trifluoromethyl-phenyl]-3-(4-pyridin-3-yl-pyrimidin-2-ylamino)-benzamide monohydrochloride monohydrate salt]
% moisture gain ([1]; listed as Hydrochloride (form B)): 0.20% | decomposes at [8]: about 173 °C | Bulk corrosivity [9]: No change | moisture uptake ([10]; 60% relative humidity): up to 2% | moisture uptake ([10]; 95% relative humidity): up to 2.7% | Appearance [4, 12]: B↓ | Assay [4, 12]: 100.33 | Assay [% area]: bracketed % area [4, 12]: 100.00 % area | Appearance [4, 13]: A* | Assay [4, 13]: 100.41 | Assay [% area]: bracketed % area [4, 13]: 100.00 % area | Appearance [4, 14]: A* | Assay [4, 14]: 99.169 | Assay [% area]: bracketed % area [4, 14]: 98.72 % area | Appearance [4, 15]: A↓ | Assay [4, 15]: 101.43 | Assay [% area]: bracketed % area [4, 15]: 100.00 % area | Appearance [4, 16]: A* | Assay [4, 16]: 46.68 | Assay [% area]: bracketed % area [4, 16]: 42.93 % area | Appearance [4, 17]: B↓ | Assay [4, 17]: 91.77 | Assay [% area]: bracketed % area [4, 17]: 91.61 % area | Appearance [4, 18]: B↓ | Assay [4, 18]: 98.84 | Assay [% area]: bracketed % area [4, 18]: 100.00 % area | Appearance [4, 19]: A↓ | Assay [4, 19]: 100.02 | Assay [% area]: bracketed % area [4, 19]: 100.00 % area | Appearance [4, 20]: B↓ | Assay [4, 20]: 99.56 | Assay [% area]: bracketed % area [4, 20]: 100.00 % area | Appearance [4, 21]: B↓ | Assay [4, 21]: 101.19 | Assay [% area]: bracketed % area [4, 21]: 100.00 % area | Appearance [4, 22]: B↓ | Assay [4, 22]: 102.19 | Assay [% area]: bracketed % area [4, 22]: 100.00 % area | Appearance [4, 23]: A* | Assay [4, 23]: 94.14 | Assay [% area]: bracketed % area [4, 23]: 93.21 % area | Appearance [4, 24]: A↓ | Assay [4, 24]: 103.06 | Assay [% area]: bracketed % area [4, 24]: 100.00 % area | Appearance [4, 25]: A↓ | Assay [4, 25]: 100.44 | Assay [% area]: bracketed % area [4, 25]: 100.00 % area | Appearance [4, 26]: A↓ | Assay [4, 26]: 102.42 | Assay [% area]: bracketed % area [4, 26]: 100.00 % area | Appearance [4, 27]: A↓ | Assay [4, 27]: 101.85 | Assay [% area]: bracketed % area [4, 27]: 100.00 % area | Assay ([4]; Unstressed): 99.10 | Assay [% area]: bracketed % area ([4]; Unstressed): 100.00 % area | Intrinsic dissolution rate ([5]; Water): 0.0024 mg min^−1 cm^−2 | Bulk (XRPD) [6, 28]: No change | Assay [6, 29]: 100.88 | Assay [% area]: bracketed % area [6, 29]: 100.00 % area | Assay [6, 30]: 92.17 | Assay [% area]: bracketed % area [6, 30]: 97.99 % area | Assay [6, 31]: 100.71 | Assay [% area]: bracketed % area [6, 31]: 100.00 % area | Bulk (XRPD) [6, 32]: No change | Assay [6, 33]: 101.23 | Assay [% area]: bracketed % area [6, 33]: 100.00 % area | Assay [6, 34]: 93.43 | Assay [% area]: bracketed % area [6, 34]: 97.82 % area | Assay [6, 35]: 100.77 | Assay [% area]: bracketed % area [6, 35]: 100.00 % area | Bulk (XRPD) [6, 36]: No change | Assay [6, 37]: 99.73 | Assay [% area]: bracketed % area [6, 37]: 100.00 % area | pH of 1% solution or suspension in water [7]: 2.53 | behaviour upon compression ([11]; compression): can withstand compression | behaviour upon grinding ([11]; grinding): becomes amorphous
